Laboratory results taken from paper PMC7582667, “A Series of Isatin-Hydrazones with Cytotoxic Activity and CDK2 Kinase Inhibitory Activity: A Potential Type II ATP Competitive Inhibitor” (Molecules, 2020).
Values joined by “and” are separate entries in the source; they are usually repeats but may differ in a detail not shown here. Equal values may be shown once.

Key:
[1] = test system: A2780 (human ovary adenocarcinoma) cell lines; assay: MTT cytotoxicity assay, A2780; format: cell-based; settings: A2780 cells; for IC50: Homo sapiens, A2780, MTT assay, triplicates; for inhibitory activity against A2780 cell lines (in words): MTT assay
Procedure: (§1) The cytotoxicity of the synthesized compounds was evaluated by MTT assay, as previously described. Two cancer cell lines, MCF7 (human breast adenocarcinoma) and A2780 (human ovary adenocarcinoma), were used in this study, which were obtained from the ATCC (Rockville, MD, USA). They were sub-cultured in RPMI-1640 media (supplemented with 10% FBS and 1% antibiotics) at 37 °C and 5% CO2. Additionally, compounds were prepared at the same medium to obtain serial dilutions (50, 25, 19,1 and 0.1 µM). The two cell lines were separately cultured in 96-well plates (3 × 10^3/well) and incubated at 37 °C overnight. The following day, before treating the cells with the compounds, each well of the T0 plate was treated with 50 μL MTT solution (2 mg/mL in phosphate buffered saline) and then incubated for 2–4 h. The media were aspirated, and the formazan crystals were solubilized by adding 150 µL DMSO. Absorbance was read on a multi-plate reader (BioRad) at […]. Optical density of the purple formazan A550 was proportional to the number of viable cells. […] The data were obtained from triplicates and analyzed using statistical software.

[2] = test system: MCF7 (human breast adenocarcinoma) cell lines; assay: MTT cytotoxicity assay, MCF7; format: cell-based; settings: MCF7 cells, triplicates
Procedure: as §1

CDK2/CyclinA2 = biological target: T1, CDK2/CyclinA2 (Homo sapiens, UniProt P24941); assay: In vitro CDK2 inhibitory activity (CDK2 Assay Kit, Kinase-Glo MAX luminescence); format: biochemical; settings: triplicate measurements, read-out: CDK2 Protein Kinase (IC50 in µM)
T1 construct: purchased #79599
Procedure: The CDK2 Assay Kit is designed to measure CDK2/CyclinA2 activity for screening and profiling applications, using Kinase-Glo® MAX as a detection reagent. The CDK2 Assay Kit comes in a convenient 96-well format, with enough purified recombinant CDK2/CyclinA2 enzyme, CDK substrate peptide, ATP and kinase assay buffer for 100 enzyme reactions. […] The CDK2/CyclinA2 activity at a single dose concentration of 10μM was performed, where the Kinase-Glo MAX luminescence kinase assay kit (Promega#V6071) was used. The compounds were diluted in 10% DMSO and 5 μL of the dilution was added to a 50 μL reaction so that the final concentration of DMSO was 1% in all of the reactions. All of the enzymatic reactions were conducted at 30 °C for 40 min. The 50 μL reaction mixture contained 40 mM Tris, pH 7.4, 10 mM MgCl2, 0.1 mg/mL BSA, 1 mM DTT, […], Kinase substrate and the enzyme (CDK2/CyclinA2). After the enzymatic reaction, 50 μL of Kinase-Glo® MAX Luminescence kinase assay solution was added to each reaction and the plates were incubated for 5 min at room temperature. Luminescence signal was measured using a Bio Tek Synergy 2 microplate reader.

melting point [°C]	IC50 (CDK2/CyclinA2)	SMILES	IC50 [1] [µM]	IC50 [2] [µM]	inhibitory activity against A2780 cell lines (in words) [1]
198 to 199		Cc1ccccc1C=NN=C1C(=O)Nc2ccccc21 [Compound 4a, 3-((2-Methylbenzylidene)hydrazono)indolin-2-one]	> 50	10.82 ± 0.05	
183 to 184		Cc1cccc(C=NN=C2C(=O)Nc3ccccc32)c1 [Compound 4b, 3-((3-Methylbenzylidene)hydrazono)indolin-2-one]	> 50	14.7	
230 to 231		Cc1ccc(C=NN=C2C(=O)Nc3ccccc32)cc1 [Compound 4c, 3-((4-Methylbenzylidene)hydrazono)indolin-2-one]	> 50	32.5 ± 0.52	
233 to 234		O=C1Nc2ccccc2C1=NN=Cc1ccccc1Br [Compound 4e, 3-((2-Bromobenzylidene)hydrazono)indolin-2-one]	19 ± 2.52	5.46 ± 0.71	a little inhibitory activity
182 to 183		O=C1Nc2ccccc2C1=NN=Cc1cccc(Br)c1 [Compound 4f, 3-((3-Bromobenzylidene)hydrazono)indolin-2-one]	25 ± 2.82	9.07 ± 0.59	a little inhibitory activity

More lines, now with the values behind:

SMILES	melting point [°C]	IC50 (CDK2/CyclinA2)	IC50 [1] [µM]	IC50 [2] [µM]	inhibitory activity against A2780 cell lines (in words) [1]
CSc1ccc(C=NN=C2C(=O)Nc3ccccc32)cc1 [Compound 4d, 3-((4-(Methylthio)benzylidene)hydrazono)indolin-2-one]	204 to 205		> 50	24 ± 2.61	
O=C1Nc2ccccc2C1=NN=Cc1ccc(Br)cc1 [Compound 4g, 3-((4-Bromobenzylidene)hydrazono)indolin-2-one]	267 to 268		> 50	15.7 ± 0.78	
COc1cc(C)c(C=NN=C2C(=O)Nc3ccccc32)c(C)c1 [Compound 4h, 3-((4-Methoxy-2,6-dimethylbenzylidene)hydrazono)indolin-2-one]	251 to 252		> 50	25.78 ± 0.13	
COc1ccc(C=NN=C2C(=O)Nc3ccccc32)c(O)c1 [Compound 4i, 3-((2-Hydroxy-4-methoxybenzylidene)hydrazono)indolin-2-one]	242 to 243		> 50	7.77 ± 0.008	
O=C1Nc2ccccc2C1=NN=Cc1c(Cl)cccc1Cl [Compound 4j, 3-((2,6-Dichlorobenzylidene)hydrazono)indolin-2-one]	286 to 287	0.245 µM and 0.246 µM	26 ± 2.24	1.51 ± 0.09	a little inhibitory activity
O=C1Nc2ccccc2C1=NN=Cc1c(F)cccc1Cl [Compound 4k, 3-((2-Chloro-6-fluorobenzylidene)hydrazono)indolin-2-one]		0.3 µM and 0.301 µM	27 ± 3.2	3.56 ± 0.31	a little inhibitory activity
COc1cccc2c1C(=O)c1c(O)c3c(c(O)c1C2=O)C[C@@](O)(C(=O)CO)C[C@@H]3O[C@H]1C[C@H](N)[C@H](O)[C@H](C)O1 [Doxorubicin, reference compound]			0.2 ± 0.03	3.1 ± 0.29	
